Assay results published in ChEMBL document CHEMBL1212903, “Neuroprotective xanthone glycosides from Swertia punicea” (2010).

Legend:
[1] = tested on: PC-12; assay: Neuroprotective activity in rat PC12 cells assessed as protection against H2O2-induced cell damage at 12.5 ug/ml after 1 hr by MTT assay relative to control; type: functional
[2] = tested on: PC-12; assay: Neuroprotective activity in rat PC12 cells assessed as protection against H2O2-induced cell damage at 25 ug/ml after 1 hr by MTT assay relative to control; type: functional

| SMILES | Activity [1] [%] | Activity [2] [%] |
| --- | --- | --- |
| O=c1c2cc(O)c(O)cc2oc2c(-c3cc(O)c4oc5cc(O)cc(O)c5c(=O)c4c3O)c(O)c([C@@H]3O[C@H](CO)[C@@H](O)[C@H](O)[C@H]3O)c(O)c12 | 95.5 | 157.8 |
| CC1=NN(c2ccccc2)C(=O)C1 [EDARAVONE] | 74.3 | 86.9 |
| O=c1c2c(oc3cc(O)c(-c4cc(O)c5oc6cc(O)cc(O)c6c(=O)c5c4O)c(O)c13)[C@H](O)CC[C@@H]2O[C@@H]1O[C@H](CO)[C@@H](O)[C@H](O)[C@H]1O [PUNICEASIDE B] | 75.1 | 98.1 |
| O=c1c2c(O)c(-c3cc(O)c4oc5cc(O)cc(O)c5c(=O)c4c3O)c(O)cc2oc2c(O)ccc(O[C@@H]3O[C@H](CO)[C@@H](O)[C@H](O)[C@H]3O)c12 [swertiabisxanthone I] | 89.1 | 123 |
